This note sets out measurements from ChEMBL document CHEMBL3826911, “Rational design and synthesis of novel anti-prostate cancer agents bearing a 3,5-bis-trifluoromethylphenyl moiety” (Bioorg Med Chem Lett, 2016).

For one data set, the system named is LNCaP. As to the kind of experiment: Antiproliferative activity against human LNCAP cells assessed as reduction in cell viability after 96 hrs by propidium iodide staining based fluorescence assay. The data set is classed as functional. Particulars: Homo sapiens, LNCaP, 96 h; read-out: IC50.
A further data set deals with Albumin (Homo sapiens, UniProt P02768). Put plainly: Binding affinity to human serum albumin at 5 uM by equilibrium dialysis based LC-MS/MS analysis. The data set is classed as ADME. The settings on record: read-out: PB (converted).
The test system of a further data set is CWR22R. Put plainly: Antiproliferative activity against human 22Rv1 cells assessed as reduction in cell viability after 96 hrs by propidium iodide staining based fluorescence assay. The data set is classed as functional. The settings on record: Homo sapiens, 22Rv1, 96 h; read-out: IC50.
Data set [1] in a line: Antiproliferative activity against human DU145 cells assessed as reduction in cell viability after 96 hrs by propidium iodide staining based fluorescence assay. The data set is classed as functional, DU-145. The settings on record: Homo sapiens, DU-145, 96 h; read-out: IC50.
Data set [2] can be described thus: Antiproliferative activity against human VCaP cells assessed as reduction in cell viability after 96 hrs by propidium iodide staining based fluorescence assay. The data set is classed as functional. Particulars: Homo sapiens, VCaP, 96 h; read-out: IC50.
The next data set relates to HepG2. Put plainly: Cytotoxicity against human HepG2 cells assessed as cell viability after 72 hrs by MTT assay. The data set is classed as functional, cell-based.
Another data set concerns the target hERG (KCNH2) (Homo sapiens, UniProt Q12809). Put plainly: Inhibition of human ERG transfected in CHO cells assessed as blockade of tail current at 25 uM by patch clamp assay. The data set is classed as cell-based. The settings on record: CHO cells transfected with human ERG. (The patch-clamp technique gives a direct electrical read-out from membranes.)
The subject of a further data set is Liver microsome. Put plainly: Metabolic stability in human liver microsomes at 3 uM in presence of NADPH by LC-MS/MS analysis. The data set is classed as ADME. (Liver microsomes are a subcellular fraction often used to study metabolism.)
The target of another data set is T1, Androgen receptor (Homo sapiens, UniProt P10275).
T1 sequence (P10275 whole entry): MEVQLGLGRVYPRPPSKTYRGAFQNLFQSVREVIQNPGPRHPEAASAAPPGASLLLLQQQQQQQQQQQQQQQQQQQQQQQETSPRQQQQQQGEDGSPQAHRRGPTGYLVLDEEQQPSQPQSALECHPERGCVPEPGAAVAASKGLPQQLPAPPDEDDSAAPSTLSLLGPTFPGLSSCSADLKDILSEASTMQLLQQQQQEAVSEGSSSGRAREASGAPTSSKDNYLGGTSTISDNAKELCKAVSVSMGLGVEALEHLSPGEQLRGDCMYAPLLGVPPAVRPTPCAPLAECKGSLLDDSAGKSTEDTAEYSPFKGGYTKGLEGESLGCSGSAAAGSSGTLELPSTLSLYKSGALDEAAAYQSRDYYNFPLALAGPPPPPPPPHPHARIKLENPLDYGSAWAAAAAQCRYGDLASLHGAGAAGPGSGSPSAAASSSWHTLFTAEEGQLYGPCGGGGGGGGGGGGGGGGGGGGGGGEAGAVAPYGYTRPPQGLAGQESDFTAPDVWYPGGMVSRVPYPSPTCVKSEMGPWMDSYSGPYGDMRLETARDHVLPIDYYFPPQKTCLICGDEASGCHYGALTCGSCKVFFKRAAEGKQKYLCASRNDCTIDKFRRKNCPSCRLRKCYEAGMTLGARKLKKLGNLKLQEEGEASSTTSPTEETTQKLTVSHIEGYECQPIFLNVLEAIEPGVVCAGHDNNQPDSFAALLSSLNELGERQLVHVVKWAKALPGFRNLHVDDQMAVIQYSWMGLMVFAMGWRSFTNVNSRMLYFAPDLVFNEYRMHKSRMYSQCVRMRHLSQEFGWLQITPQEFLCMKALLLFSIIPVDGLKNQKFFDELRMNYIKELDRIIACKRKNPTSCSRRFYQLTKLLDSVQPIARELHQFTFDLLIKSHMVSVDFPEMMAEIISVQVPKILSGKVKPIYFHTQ
The data set is classed as cell-based, GripTite-293.

Data set [3] addresses T2, Androgen receptor (Homo sapiens) (UniProt P10275).
T2 sequence (whole entry): T1 sequence (P10275 whole entry)
The settings on record: GripTite-293, at 10 µM.

Data set [4] in a line: Half life in human liver microsomes at 3 uM in presence of NADPH by LC-MS/MS analysis. The data set is classed as ADME.
Data set [5] is described as follows: Protein binding in human plasma by equilibrium dialysis method. The data set is classed as ADME, cell-free. Particulars: read-out: PPB (converted). On the technique in general: Equilibrium dialysis compares concentrations on both sides of a semipermeable membrane.
A short description of data set [6]: Intrinsic clearance in human liver microsomes assessed per mg of protein at 3 uM in presence of NADPH by LC-MS/MS analysis. The data set is classed as ADME. The settings on record: read-out: CLH.

Sequence of Albumin (P02768 whole entry): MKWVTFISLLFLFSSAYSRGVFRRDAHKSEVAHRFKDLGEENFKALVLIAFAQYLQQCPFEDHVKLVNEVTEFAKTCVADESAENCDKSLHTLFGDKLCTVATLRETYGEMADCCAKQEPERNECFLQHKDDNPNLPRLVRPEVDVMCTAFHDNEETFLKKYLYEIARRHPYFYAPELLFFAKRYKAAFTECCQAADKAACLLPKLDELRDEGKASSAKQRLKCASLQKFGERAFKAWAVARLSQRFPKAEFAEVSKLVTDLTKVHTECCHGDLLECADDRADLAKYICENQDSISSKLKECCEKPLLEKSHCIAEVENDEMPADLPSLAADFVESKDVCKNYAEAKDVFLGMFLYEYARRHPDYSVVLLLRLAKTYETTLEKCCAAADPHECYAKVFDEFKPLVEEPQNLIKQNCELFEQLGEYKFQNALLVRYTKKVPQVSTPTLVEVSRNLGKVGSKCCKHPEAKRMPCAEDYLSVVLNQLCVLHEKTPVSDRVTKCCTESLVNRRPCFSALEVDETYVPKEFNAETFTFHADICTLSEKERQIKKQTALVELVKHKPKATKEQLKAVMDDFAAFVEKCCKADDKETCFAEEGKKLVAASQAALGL
Sequence of hERG (KCNH2) (Q12809 whole entry): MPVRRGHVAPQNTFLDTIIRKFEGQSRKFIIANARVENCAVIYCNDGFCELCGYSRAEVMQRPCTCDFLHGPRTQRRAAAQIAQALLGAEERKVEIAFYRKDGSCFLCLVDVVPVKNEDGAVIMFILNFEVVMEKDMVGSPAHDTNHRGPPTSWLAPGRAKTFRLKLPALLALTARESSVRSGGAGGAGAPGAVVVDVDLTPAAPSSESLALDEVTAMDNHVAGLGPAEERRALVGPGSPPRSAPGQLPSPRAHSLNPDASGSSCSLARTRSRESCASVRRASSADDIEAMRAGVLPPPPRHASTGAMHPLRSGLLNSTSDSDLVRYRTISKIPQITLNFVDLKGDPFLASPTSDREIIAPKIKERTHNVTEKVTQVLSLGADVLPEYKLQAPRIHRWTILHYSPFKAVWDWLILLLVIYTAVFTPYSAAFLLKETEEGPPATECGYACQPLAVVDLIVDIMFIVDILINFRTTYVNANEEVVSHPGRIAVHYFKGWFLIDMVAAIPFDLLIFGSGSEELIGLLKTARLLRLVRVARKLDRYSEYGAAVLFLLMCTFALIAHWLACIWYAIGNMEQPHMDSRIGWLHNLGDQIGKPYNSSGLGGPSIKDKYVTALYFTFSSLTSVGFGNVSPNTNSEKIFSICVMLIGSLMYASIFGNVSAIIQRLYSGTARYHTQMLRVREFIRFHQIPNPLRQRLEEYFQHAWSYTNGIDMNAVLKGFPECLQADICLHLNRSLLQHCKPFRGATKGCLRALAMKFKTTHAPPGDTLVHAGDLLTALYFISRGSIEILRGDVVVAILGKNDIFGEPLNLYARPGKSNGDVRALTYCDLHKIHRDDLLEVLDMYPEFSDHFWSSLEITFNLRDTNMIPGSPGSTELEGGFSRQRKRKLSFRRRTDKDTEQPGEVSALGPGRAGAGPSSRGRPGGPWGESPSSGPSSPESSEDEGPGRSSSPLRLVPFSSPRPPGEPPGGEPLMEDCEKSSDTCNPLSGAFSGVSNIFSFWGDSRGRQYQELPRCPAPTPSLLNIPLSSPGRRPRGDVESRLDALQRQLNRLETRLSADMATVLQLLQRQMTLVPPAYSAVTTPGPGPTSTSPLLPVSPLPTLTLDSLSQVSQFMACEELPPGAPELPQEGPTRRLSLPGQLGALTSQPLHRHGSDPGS

The IC50 is the concentration needed to halve the response being measured. As a reminder, the inhibition is the percentage by which the read-out fell short of the control. Take `C[C@](O)(CS(=O)(=O)c1cc(C(F)(F)F)cc(C(F)(F)F)c1)C(=O)Nc1ccc(C#N)c(C(F)(F)F)c1`: the IC50 came out at 1990 nM with LNCaP, 2500 nM in the data set on CWR22R, 6.36 µM in [1] and 4.11 µM in [2]. Further, on Albumin, the fraction unbound at 5 µM was 0.001. Further, the Activity entry with HepG2 is “Dose-dependent effect”. In addition, the inhibition at 25 µM at hERG (KCNH2) is 29.3%. Further, the Stability result in the data set with Liver microsome was “Stable”.
In general, AC50 refers to the midpoint of the concentration-response curve, whichever way the signal moves. Broadly, the half-life is how long it takes for the measured level to halve. `CC(O)(CS(=O)(=O)c1cc(C(F)(F)F)cc(C(F)(F)F)c1)C(=O)Nc1ccc([N+](=O)[O-])c(C(F)(F)F)c1` (stereo not given): the IC50 on Androgen receptor was found to be 3100 nM; in the data set on LNCaP, 2100 nM; with CWR22R it was 2150 nM; in data set [1] it was 5.26 µM; in data set [2], 3.3 µM. The molecule further showed an inhibition in data set [3] of 93%. For the same molecule, the AC50 with HepG2 (HepG2, 72 h) was 9.01 µM. For the same molecule, in the data set on HepG2 (HepG2, 72 h, read-out: MEC), the minimal effective concentration is 3.6 µM. The half-life at 3 µM in data set [4] is 567 min.
With `CC(O)(CSc1cc(C(F)(F)F)cc(C(F)(F)F)c1)C(=O)Nc1ccc([N+](=O)[O-])c(C(F)(F)F)c1` (stereo not given), the IC50 was 710 nM at Androgen receptor; 1500 nM with LNCaP; 1500 nM with CWR22R; 2.78 µM in data set [1]; 1.53 µM in data set [2]. In [3], this molecule came in with an inhibition of 90%. Besides, the Activity result with HepG2 was “Dose-dependent effect”.
Consider `C[C@](O)(CS(=O)(=O)c1ccc(F)cc1)C(=O)Nc1ccc(C#N)c(C(F)(F)F)c1` [(R)-BICALUTAMIDE], for which the IC50 in the data set with CWR22R stood at 46200 nM; in data set [1] it was 45.4 µM; in [2], 51.6 µM. Moreover, in data set [5], the fraction unbound is 0.04. Besides, the AC50 with HepG2 (HepG2, 72 h) is 54.3 µM. In addition, in data set [4], the half-life at 3 µM came out at 214 min.
Regarding `COc1ccc2c(c1)[C@]13CCCC[C@@H]1[C@H](C2)N(C)CC3` [DEXTROMETHORPHAN], the microsomal CLint at 3 µM in data set [6] came out at 21.9 µL/min/mg. The half-life at 3 µM in data set [4] worked out at 63.2 min.
Consider `CC(O)(COc1cc(C(F)(F)F)cc(C(F)(F)F)c1)C(=O)Nc1ccc(C#N)c(C(F)(F)F)c1` (stereo not given), for which the IC50 in the data set on LNCaP was 3010 nM; in the data set with CWR22R it was 2640 nM; in data set [1] it was 4.7 µM; in [2] it was 2.47 µM. Also, the fraction unbound at 5 µM on Albumin was 0.053. Besides, the Activity entry with HepG2 was “Dose-dependent effect”. Besides, in data set [4], the half-life at 3 µM turned out to be 1930 min. In addition, the inhibition at 25 µM at hERG (KCNH2) was found to be 7.64%.
